Test systems include CCRF-CEM; DMS-273; DU-145; EKVX; HCT-116; HOP-62; HOP-92; HT-29; Malme-3M; NCI-H226; NCI-H23; NCI-H460; OVCAR-4; OVCAR-5; OVCAR-8; SF-295; SNB-19; SR; UACC-62; SK-MEL-28.
Holding throughout (assay): growth of human tumour cells (NCI), 48 h

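Method: 48-hour compound exposure of cells in 96-well plates, five concentrations, linear interpolation of endpoints. GI50 = concentration required for 50% inhibition of growth.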 Calls of active or inactive are those of the source. Rule as the data show it: active = GI50 up to about 1.1 µM and inactive = higher. Bounds are passed on as bounds.

Regarding `c1ccc2c(NCCCCCCCCNc3c4ccccc4nc4ccccc34)c3ccccc3nc2c1`, the GI50 in the assay on CCRF-CEM was < 27.8 nM (active); in the assay with DMS-273 it was 43 nM (active); in the assay with DU-145, 83.8 nM (active); in the assay on EKVX it was 323 nM (active); with HCT-116, 39.2 nM (active); in the assay with HOP-62 it was 224 nM (active). Besides, the GI50 was 1480 nM (inactive) with HOP-92; < 28.1 nM (active) in the assay with HT-29; 1140 nM (inactive) in the assay on Malme-3M; 1350 nM (inactive) in the assay on NCI-H226; 257 nM (active) in the assay with NCI-H23; 42.8 nM (active) with NCI-H460. Besides, the GI50 with OVCAR-4 is 887 nM (active); in the assay with OVCAR-5, 230 nM (active); with OVCAR-8 it was 270 nM (active); with SF-295, 693 nM (active); in the assay with SNB-19, 332 nM (active); with SR it was 24 nM (active). For the same compound, the GI50 with UACC-62 is 684 nM (active).

`CC(C)C1COC(C(C)(C)C2=N[C@@H](C(C)C)CO2)=N1` (stereo partly drawn): the GI50 with CCRF-CEM is > 100000 nM (inactive); in the assay on DMS-273 it was > 100000 nM (inactive); in the assay with EKVX, > 100000 nM (inactive); with HCT-116, > 100000 nM (inactive); with HOP-62 it was > 100000 nM (inactive); in the assay with HOP-92, 70300 nM (inactive). The GI50 with HT-29, in the assay with Malme-3M, in the assay on NCI-H226, with NCI-H23, in the assay on NCI-H460 and in the assay with OVCAR-4 was > 100000 nM (inactive) throughout. Besides, the GI50 in the assay with OVCAR-5, in the assay on OVCAR-8, with SF-295, in the assay with SK-MEL-28, with SNB-19 and in the assay with SR was > 100000 nM (inactive) each time. In addition, in the assay with UACC-62, the GI50 is > 100000 nM (inactive).

For the compound `CCOCC(=O)N[C@H]1CCc2cc(OC)c(OC)c(OC)c2-c2ccc(OC)c(=O)cc21`, the GI50 in the assay on CCRF-CEM is 44.4 nM (active); with DMS-273, 12.8 nM (active); with DU-145, 21.3 nM (active); in the assay on EKVX, > 15800 nM (inactive); in the assay on HCT-116, 14 nM (active); in the assay on HOP-62, 23.2 nM (active). The GI50 in the assay on HOP-92 is 30.3 nM (active); in the assay on HT-29, 14.6 nM (active); in the assay with Malme-3M it was 22.9 nM (active); with NCI-H226, 76.2 nM (active); with NCI-H23 it was 13.2 nM (active); in the assay with NCI-H460, 16.5 nM (active). In addition, the GI50 in the assay with OVCAR-4 is 3620 nM (inactive); in the assay on OVCAR-5 it was 741 nM (active); in the assay on OVCAR-8, 19.4 nM (active); in the assay with SF-295, 20.6 nM (active); in the assay with SK-MEL-28, 2230 nM (inactive); with SNB-19, 164 nM (active). Further, the GI50 in the assay with SR is < 20.6 nM (active); in the assay with UACC-62 it was 15.3 nM (active).

For the origin of these results see ChEMBL document CHEMBL1201862, “PubChem BioAssay data set” (2004).
